These results are taken from patent publication US12227747B2, “Composition comprising aptamer as active ingredient for treatment and prevention of degenerative brain disease” (Nexmos Co., LTD, priority 2018, dated 2025).

Series [1] in a line: Fluorescence-based microplate assay (OPDA) of ascorbic acid oxidation. It is filed as physicochemical. An excerpt: (§1) FIGS. 4-5 is a diagram showing a fluorescence-based microplate assay that inhibits ascorbic acid oxidation, and FIG. 4 is an experimental result using OPDA, a substance that becomes fluorescent by binding to DHA. […] FIG. 5 is a comparison of the antioxidant activity of remaining ascorbic acid using DCPIP after AptaminC3T31+ascorbic acid and ascorbic acid were left for 8 weeks under the same conditions. AptaminC3T31+ascorbic acid maintained 50% antioxidant activity even after 8 weeks,
The oxidation of ascorbic acid was measured in reverse with detecting the oxidized product dehydroascorbic acid (DHA) with modifying a method described in Vislisel et al. (Vislisel, J. M. Schafer, F. O. and Buettner, G. R. (2007) Analytical biochemistry, 365, 31-39).
Briefly, aptamers were incubated with AA (10.3 μM) at 4× concentration for 30 minutes at room temperature before addition of 25 μM H2O2 (Sigma). Before the addition of OPDA dye (Sigma), the oxidizing agent sample was added and incubated at room temperature for 10 minutes. Immediately after addition of the dye (954.6 μM) sample, and read at excitation 345 nm; emission: 425 nm with a SpectraMax® plate reader (Molecular Devices) for 45 minutes at intervals of 60 seconds until the control converges. […] All fluorescence assays were performed in black 384-well plates (greiner bio-one). […]

Series [2] in a line: Storage of vitamin C with aptamer at room temperature for 8 weeks, reducing activity by DCPIP. To be noted: FIG. 5. It is filed as physicochemical.
Excerpt: as §1
The aptamin C of the present invention was maintained at room temperature for 8 weeks and the reducing activity of ascorbic acid was measured using DCPIP (2,6-Dichlorophenolindophenol).

Series [3] is described as follows: ITC (Isothermal Titration calorimetry) of the aptamer binding to ascorbic acid. The note with it: FIG. 7, read-out: binding affinity between the aptamer and ascorbic acid. A general note: In ITC the heat of successive injections is recorded.

“AptaminC3T31: DNA aptamer binding vitamin C (ascorbic acid); SEQ ID NO: 1, GTGGAGGCGGTGGCCAGTCTCGCGGTGGCGGC (DNA GTGGAGGCGGTGGCCAGTCTCGCGGTGGCGGC; listed as DNA, chemistry not given here)”: the “oxidation of ascorbic acid (DHA detected with OPDA fluorescence)” value in series [1] (ascorbic acid treated with hydrogen peroxide, FIG. 4) was “oxidation of ascorbic acid is prevented”. Also, the “ability to protect AA from oxidation” value in series [1] (screen of top 20 candidate aptamers from SELEX) is “best effect”. For the same substance, the “increase of shelf life compared to ascorbic acid alone” value in series [2] is reported as no less than 4 times. The Kd in series [3] was found to be 0.9 µM.
